Measurements from patent publication US9149536B2, “Conjugated antimicrobial agents” (priority 2009, dated 2015).
Values after ≈ are worked out from the molar mass of the structure shown. Where two headings read alike, the source gives them in different places.

Legend:
[1] = tested on: E. coli R477-100; assay: MIC, double-microdilution, E. coli R477-100; format: cell-based, Escherichia coli; settings: for MIC: Escherichia coli; for MIC E. coli R477-100: Table 4
[2] = tested on: E. coli AG100B; assay: MIC, double-microdilution, E. coli AG100B; format: cell-based, Escherichia coli; settings: for MIC: Escherichia coli, AG100B; for MIC E. coli AG100B: Table 4
Source text: AG100B and AG100A are two kanamycin resistant Escherichia coli strains expressing APH(3′)-I aminoglycoside resistance enzyme.

[3] = tested on: E. coli AG100A; assay: MIC, double-microdilution, E. coli AG100A; format: cell-based, Escherichia coli; settings: for MIC E. coli AG100A: Table 4, kanamycin resistant, APH(3′)-I
[4] = tested on: bacterial protein synthesis; assay: In vitro coupled transcription/translation assay, E. coli S30 extract; format: biochemical; settings: luciferase readout
Procedure: Protein translation inhibition by the different compounds was quantified in a coupled transcription/translation assay by using E. coli S30 extracts for circular DNA with the pBEST/uc plasmid (Promega), according to the manufacturer's protocol.
Translation reactions (25 μl) that contained variable concentrations of the tested compound were incubated at 37° C. for 60 minutes, cooled on ice for 5 minutes, and diluted with a dilution reagent (tris-phosphate buffer (25 mM, pH 7.8), DTT (2 mM), 1,2-diaminocyclohexanetetraacetate (2 mM), glycerol (10%), Triton X-100 (1%) and BSA (1 mg/ml)) into 96-well plates. The luminescence was measured immediately after the addition of the Luciferase Assay Reagent (50 μl; Promega), and the light emission was recorded with a Victor3™ Plate Reader (Perkin-Elmer). The concentration of half-maximal inhibition (IC50) was obtained from fitting concentration-response curves to the data of at least two independent experiments by using Grafit 5 software (Leatherbarrow, R. J. Erithacus Software Ltd: Horley, U.K., 2001).
(§1) Relaxation assays were conducted with E. coli TopoIV.

[5] = tested on: B. subtilis ATCC 6633; assay: MIC, double-microdilution, B. subtilis ATCC 6633; format: cell-based; settings: for MIC: Bacillus subtilis, ATCC6633
[6] = tested on: E. coli ATCC 25922; assay: MIC, double-microdilution, E. coli ATCC 25922; format: cell-based, Escherichia coli; settings: for MIC: Escherichia coli, ATCC25922
[7] = tested on: E. coli ATCC 35218; assay: microbe, parasite or virus in culture; format: cell-based; settings: Escherichia coli, ATCC35218, read-out: MIC 15th passage, E.coli ATCC 35218
Procedure: (§2) In parallel, MIC evolution during these subcultures was compared concomitantly with each new generation, using bacteria harvested from control wells (wells cultured without antimicrobial agent from the previous generation). The relative MIC was calculated for each experiment from the ratio of MIC obtained for a given subculture to that obtained for first-time exposure.

[8] = tested on: B. subtilis ATCC 6633; assay: microbe, parasite or virus in culture; format: cell-based; settings: Bacillus subtilis, ATCC6633, read-out: MIC 15th passage, B.subtilis ATCC 6633
Procedure: as §2

[9] = tested on: MRSA ATCC 43300; assay: microbe, parasite or virus in culture; format: cell-based, S. aureus; settings: Table 4
[10] = target: E. coli DNA gyrase (Escherichia coli, UniProt P0AES4+P0AES6)
[11] = target: T1, E. coli TopoIV (Escherichia coli, UniProt P0AFI2+P20083); assay: TopoIV relaxation assay; format: biochemical
T1 construct: purchased Inspiralis Ltd
Procedure: DNA relaxation activity was assayed with supercoiled pBR322 DNA as a substrate (Inspiralis Ltd) according to the manufacturer's protocol. The standard reaction mixture (20 μl) contained 40 mM HEPES-KOH pH 7.6, 100 mM potassium glutamate, 10 mM Mg(OAc)2, 10 mM dithiothreitol, 1 mM ATP, 50 μg/ml albumin, 5 ng/μl […] pBR322, and TopoIV protein. The reaction mixture was incubated at 37° C. for 30 minutes, and then was terminated by addition of 2 μl 0.5 M EDTA, 3.5 μl loading dye and 20 μl chloroform/isoamyl alcohol (24:1) mixture. […] One unit of relaxation activity was defined as the amount of TopoIV required to relax 0.1 μg of plasmid in 30 minutes.
as §1

[12] = target: T2, APH(3′)-IIIa enzyme (Enterococcus faecalis, UniProt P0A3Y5); format: biochemical
T2 construct: made in house; host or cells: E. coli BL21 carrying pETSACG1 (inferred)

[13] = tested on: E. coli XL1 blue/pSF815; assay: microbe, parasite or virus in culture; format: cell-based
Procedure: (§3) For this purpose, exemplary conjugates, according to some embodiments of the present invention, were tested against five isogenic E. coli strains. E. coli (pSF815) and E. coli (pET9d) are laboratory resistant strains derived by transformation of E. coli XL1 blue (background strain) with the pSF815 and pET9d plasmids, respectively. […] The last two isogenic strains used were E. coli BL21 (background strain) and E. coli (pETSACG1). […] These three enzymes are among the most prevalent modes of resistance found in aminoglycosides resistance strains.
(§4) The MIC ratios were calculated by dividing the MIC value against resistant strain to that against the respective background strain.

[14] = tested on: E. coli XL1 blue; assay: microbe, parasite or virus in culture; format: cell-based; settings: background strain
Procedure: as §3, §4

[15] = tested on: E. coli BL21; assay: microbe, parasite or virus in culture; format: cell-based; settings: background strain
Procedure: as §3, §4

[16] = tested on: E. coli BL21/pETSACG1; assay: microbe, parasite or virus in culture; format: cell-based
Procedure: as §3, §4

[17] = tested on: E. coli XL1 blue/pET9d; assay: microbe, parasite or virus in culture; format: cell-based
Procedure: as §3, §4

[18] = compound as substrate of APH(3′)-IIIa
[19] = MIC resistant strain divided by MIC background strain

T2 sequence (P0A3Y5 whole entry): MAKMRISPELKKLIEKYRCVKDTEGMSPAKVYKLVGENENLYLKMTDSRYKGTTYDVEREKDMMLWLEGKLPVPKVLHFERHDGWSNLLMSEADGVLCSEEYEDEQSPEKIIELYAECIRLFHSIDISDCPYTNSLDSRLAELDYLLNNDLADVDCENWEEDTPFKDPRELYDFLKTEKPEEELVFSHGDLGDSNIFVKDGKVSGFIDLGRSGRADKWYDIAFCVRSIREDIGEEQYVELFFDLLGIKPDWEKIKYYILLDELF
Chain of E. coli DNA gyrase (P0AES4 whole entry, one chain of several): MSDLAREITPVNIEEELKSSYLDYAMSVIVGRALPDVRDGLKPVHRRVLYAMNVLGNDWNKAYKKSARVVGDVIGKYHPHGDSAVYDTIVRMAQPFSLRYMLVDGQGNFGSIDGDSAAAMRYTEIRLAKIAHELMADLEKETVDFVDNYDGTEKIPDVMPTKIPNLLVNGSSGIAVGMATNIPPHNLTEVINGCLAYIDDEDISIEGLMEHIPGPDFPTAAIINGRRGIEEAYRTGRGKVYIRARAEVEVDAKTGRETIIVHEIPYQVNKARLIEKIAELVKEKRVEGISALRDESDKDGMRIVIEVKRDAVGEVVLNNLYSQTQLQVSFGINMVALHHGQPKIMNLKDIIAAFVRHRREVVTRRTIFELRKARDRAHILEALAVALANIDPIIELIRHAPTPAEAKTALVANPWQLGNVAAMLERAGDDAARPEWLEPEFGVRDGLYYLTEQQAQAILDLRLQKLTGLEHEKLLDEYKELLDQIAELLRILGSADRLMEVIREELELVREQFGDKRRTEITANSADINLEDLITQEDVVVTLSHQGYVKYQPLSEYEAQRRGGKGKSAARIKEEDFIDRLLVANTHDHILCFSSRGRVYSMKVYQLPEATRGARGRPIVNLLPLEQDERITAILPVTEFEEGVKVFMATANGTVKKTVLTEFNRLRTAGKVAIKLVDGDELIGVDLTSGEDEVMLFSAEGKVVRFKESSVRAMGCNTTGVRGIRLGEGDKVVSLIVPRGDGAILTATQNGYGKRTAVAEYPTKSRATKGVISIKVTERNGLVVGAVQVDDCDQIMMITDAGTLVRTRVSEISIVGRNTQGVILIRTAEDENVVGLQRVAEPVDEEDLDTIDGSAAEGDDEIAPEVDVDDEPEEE
T1 sequence (P0AFI2 whole entry): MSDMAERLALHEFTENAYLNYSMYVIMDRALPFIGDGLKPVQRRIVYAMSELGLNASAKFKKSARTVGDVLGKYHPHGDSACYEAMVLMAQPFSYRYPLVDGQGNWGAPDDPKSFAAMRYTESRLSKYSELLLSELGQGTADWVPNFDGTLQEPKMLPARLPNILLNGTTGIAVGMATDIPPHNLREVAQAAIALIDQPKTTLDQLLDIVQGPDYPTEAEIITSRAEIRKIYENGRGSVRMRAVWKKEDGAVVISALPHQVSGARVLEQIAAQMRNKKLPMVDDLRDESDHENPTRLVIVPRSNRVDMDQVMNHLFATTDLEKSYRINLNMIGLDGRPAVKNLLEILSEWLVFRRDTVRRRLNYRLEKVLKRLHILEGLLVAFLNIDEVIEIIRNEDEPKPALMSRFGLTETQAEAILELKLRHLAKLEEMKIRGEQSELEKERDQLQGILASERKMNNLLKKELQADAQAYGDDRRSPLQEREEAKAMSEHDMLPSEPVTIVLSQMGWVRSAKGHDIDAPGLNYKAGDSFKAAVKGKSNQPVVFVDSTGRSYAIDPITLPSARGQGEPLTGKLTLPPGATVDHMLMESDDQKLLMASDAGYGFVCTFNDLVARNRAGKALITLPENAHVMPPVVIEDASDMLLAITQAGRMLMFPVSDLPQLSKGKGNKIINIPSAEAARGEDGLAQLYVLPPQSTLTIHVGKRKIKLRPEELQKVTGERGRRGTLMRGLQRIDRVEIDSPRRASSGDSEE
T1 sequence (P20083 whole entry): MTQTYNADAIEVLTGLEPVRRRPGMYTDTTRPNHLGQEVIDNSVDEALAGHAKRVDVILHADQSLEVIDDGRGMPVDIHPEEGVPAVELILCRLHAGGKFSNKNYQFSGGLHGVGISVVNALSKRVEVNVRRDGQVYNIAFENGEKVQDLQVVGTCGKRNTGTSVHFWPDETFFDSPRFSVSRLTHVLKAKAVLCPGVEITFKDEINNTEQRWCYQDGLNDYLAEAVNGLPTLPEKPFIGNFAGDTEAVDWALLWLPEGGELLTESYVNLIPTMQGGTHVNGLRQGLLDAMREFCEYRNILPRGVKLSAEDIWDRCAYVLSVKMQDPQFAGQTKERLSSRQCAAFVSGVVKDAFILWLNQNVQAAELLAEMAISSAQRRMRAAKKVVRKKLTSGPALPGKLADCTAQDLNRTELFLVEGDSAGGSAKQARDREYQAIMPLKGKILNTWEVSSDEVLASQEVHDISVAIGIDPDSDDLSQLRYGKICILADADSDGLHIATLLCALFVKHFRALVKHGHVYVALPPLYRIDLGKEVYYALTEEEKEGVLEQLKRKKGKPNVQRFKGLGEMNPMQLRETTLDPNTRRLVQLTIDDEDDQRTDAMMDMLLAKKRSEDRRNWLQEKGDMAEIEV

O=C(O)c1cn(C2CC2)c2cc(N3CCNCC3)c(F)cc2c1=O [Cipro, ciprofloxacin, reference compound] gave an MIC ([1]; R477100, read-out: MIC E. Coli R477-100) of 0.023 µg/mL (≈ 0.0694 µM), an MIC ([1]; R477100, read-out: MIC E. coli R477-100) of 0.02 µg/mL (≈ 0.0604 µM) and an MIC ([2]; read-out: MIC E. coli AG100B, Table 4, kanamycin resistant, APH(3′)-I) of 0.05 µg/mL (≈ 0.151 µM). For the same molecule, the MIC ([2]; read-out: MIC E. coli AG100B, Table 6) was 0.06 µg/mL (≈ 0.181 µM), the MIC ([3]; Escherichia coli, AG100A, read-out: MIC E. coli AG100A, Table 6) was less than 0.003 µg/mL and the “Protein synthesis IC50” value [4] was “inactive”. The MIC ([5]; Table 4, read-out: MIC B. subtilis ATCC 6633) was 0.02 µg/mL (≈ 0.0604 µM), the MIC ([5]; Table 6, read-out: MIC Bacillus subtilis) was 0.023 µg/mL (≈ 0.0694 µM) and the MIC ([6]; Table 4, read-out: MIC E. coli ATCC 25922) was 0.02 µg/mL (≈ 0.0604 µM). The MIC ([6]; Table 6, read-out: MIC E. coli 25922) was 0.023 µg/mL (≈ 0.0694 µM), the MIC [7] was 0.75 µg/mL (≈ 2.26 µM) and the MIC [8] was 0.75 µg/mL (≈ 2.26 µM). The MIC ([9]; Staphylococcus aureus, read-out: MIC MRSA ATCC 43300) was 0.2 µg/mL (≈ 0.604 µM) and the “MIC MRSA ATCC 43300” value [9] was 0.20 µg/mL (≈ 0.604 µM).

In the case of NCC1OC(OC2C(C(=O)Nc3ccc(-c4cn(CC(O)CN5CCN(c6cc7c(cc6F)c(=O)c(C(=O)O)cn7C6CC6)CC5)nn4)cc3)OC(OC3C(O)C(N)CC(N)C3OC3OC(CN)C(O)C(O)C3N)C2O)C(N)C(O)C1O (stereo not shown) [Compound 1f, N-(4-(1-(2-hydroxy-3-(ciprofloxacin)propyl)-1H-1,2,3-triazol-4-yl)-5″-phenyl)neomycin carboxamide], the “MIC E. coli R477-100” value [1] is reported as 6 µg/mL (≈ 5.18 µM), the “MIC E. coli AG100B” value ([2]; kanamycin resistant, APH(3′)-I) is reported as 6 µg/mL (≈ 5.18 µM) and the “IC50 fold superior than that of Cipro in DNA gyrase assay” value ([10]; general statements name DNA gyrase and TopoIV together) is reported as 18 fold. For the same molecule, the IC50 ([10]; read-out: DNA gyrase IC50, supercoiling assay, relaxed pBR322) was 73 ± 5 nM, the “MIC E. coli AG100A” value [3] was 0.75 µg/mL (≈ 0.648 µM) and the IC50 [4] was 2200 ± 600 nM. For the same molecule, the “MIC B. subtilis ATCC 6633” value ([5]; Table 4) was 6 µg/mL (≈ 5.18 µM), the “IC50 fold superior than Cipro in TopoIV assay” value [11] was 19 fold and the IC50 ([11]; relaxation assay, supercoiled pBR322) was 580 ± 40 nM. For the same molecule, the “MIC E. coli ATCC 25922” value ([6]; Table 4) was 3 µg/mL (≈ 2.59 µM) and the “MIC MRSA ATCC 43300” value [9] was 24 µg/mL (≈ 20.7 µM).

In the case of NCC1OC(OC2C(C(=O)NCc3cn(CC(O)CN4CCN(c5cc6c(cc5F)c(=O)c(C(=O)O)cn6C5CC5)CC4)nn3)OC(OC3C(O)C(N)CC(N)C3OC3OC(CN)C(O)C(O)C3N)C2O)C(N)C(O)C1O (stereo not shown) [Compound 1m, N-((1-(2-hydroxy-3-(ciprofloxacin)propyl)-1H-1,2,3-triazol-4-yl)-5″-methyl)neomycin carboxamide], the “MIC E. coli R477-100” value [1] is reported as 6 µg/mL (≈ 5.47 µM), the “MIC E. coli AG100B” value ([2]; kanamycin resistant, APH(3′)-I) is reported as 12 µg/mL (≈ 10.9 µM) and the “MIC E. coli AG100A” value [3] is reported as 0.75 µg/mL (≈ 0.684 µM). For the same molecule, the “MIC B. subtilis ATCC 6633” value ([5]; Table 4) was 3 µg/mL (≈ 2.74 µM), the Km [12] was 87 µM and the Km [12, 18] was 86.8 ± 8.9 µM. For the same molecule, the kcat [12, 18] was 2.5 ± 0.1 s⁻¹, the “MIC ratio XL1 blue/pSF815 to XL1 blue” value [13, 19] was 8 and the “MIC XL1 blue/pSF815” value ([13]; expressed enzyme AAC(6′)-APH(2″)) was 48 μg/ml. The “MIC XL1 blue” value [14] was 6 µg/mL (≈ 5.47 µM), the “MIC BL21” value [15] was 0.2 µg/mL (≈ 0.182 µM) and the “MIC ratio BL21/pETSACG1 to BL21” value [16, 19] was 1. For the same molecule, the “MIC BL21/pETSACG1” value ([16]; expressed enzyme APH(3′)-IIIa) was 0.2 μg/ml, the “MIC against E. coli (pETSACG1)” value ([16]; molar expression of 0.2 μg/ml) was 5.5 μM and the “MIC ratio XL1 blue/pET9d to XL1 blue” value [17, 19] was 2. For the same molecule, the “MIC XL1 blue/pET9d” value ([17]; expressed enzyme APH(3′)-Ia) was 12 μg/ml, the “MIC E. coli ATCC 25922” value ([6]; Table 4) was 3 µg/mL (≈ 2.74 µM) and the “MIC MRSA ATCC 43300” value [9] was 12 µg/mL (≈ 10.9 µM).
